From patent US9249129B2, “Morpholino substituted urea derivatives as mTOR inhibitors” (CELLZOME LIMITED, priority 2010, dated 2016)

Key:
[1] = system: S6RP serine-240/244 phosphorylation in HEK293T/17 cells; experiment: In vitro phospho-S6 cellular assay (pS6RP S240/244); assay type: cell-based; settings: Homo sapiens, Table 6, 2 hours, S6RP Ser240/244, read-out: pS6 (phospho-S6 cell assay data, activity level)
Outline: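 HEK293T/17 cells in DMEM with 2% FCS treated with 8 compound concentrations (0.1% DMSO) for 2 h at 37 °C, then lysed. Phospho-S6RP Ser240/244 or phospho-Akt Ser473 quantified by MesoScale sandwich immunoassay with Sulfo-Tag detection; IC50 from variable-slope sigmoidal fit.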

[2] = system: Akt serine-473 phosphorylation in HEK293T/17 cells; experiment: In vitro phospho-Akt cellular assay (pAkt S473); assay type: cell-based; settings: Homo sapiens, Table 6, 2 hours, Akt Ser473, read-out: pAKT (Phospho-Akt cell assay data, activity level)
Description: In Vitro Phospho-S6 and Phospho-Akt Cellular Assay
Activation of mTOR signaling results in phosphorylation of several downstream targets. In cells, mTOR exists in two different protein complexes. The mTOR Complex-1 (mTORC1) phosphorylates and activates S6 Kinase 1 (S6K1) and S6 Kinase 2 (S6K2) (also known as p70S6K) which then phosphorylate S6 Ribosomal Protein (S6RP) (also known as RPS6). S6RP is phosphorylated on serine 235, serine 236, serine 240 and serine 244 by both pS6K1 and pS6K2. The mTOR Complex-2 (mTORC2) phosphorylates AKT on serine 473 which activates the AKT signaling pathway.
The assay measures a test compound's inhibition of S6RP serine-240/244 phosphorylation and inhibition of Akt serine-473 phosphorylation in human embryonic kidney derived HEK293T/17 cells (ATCC CRL-11268).
The HEK293T/17 cell line is maintained in DMEM media (Invitrogen catalogue number 41965-039) supplemented with 10% FCS at 37° C. in a 5% CO2 humidified incubator.
Cells are seeded in 96-well plates at 40,000 cells/well (pS6RP S240/244 assay) or 80,000 cells/well (pAkt 5473 assay) in 90 μl growth media (DMEM, 2% FCS). Plates are incubated for 1 hour in a humidified incubator to allow the cells to adhere. Cells are treated with 8 concentrations of test compounds or DMSO alone for controls (final DMSO concentration 0.1%) and incubated at 37° C. for 2 hours. Then 20 μl of 5× concentrated lysis buffer (750 mM NaCl, 100 mM Tris pH7.4, 5 mM EDTA, 5 mM EGTA, 5% Triton X-100) is added, plates are sealed and incubated for 15 minutes at 4° C. with gentle shaking. After cell lysis, 25 μl cell lysate is transferred to a MesoScale plate coated with an antibody to pS6RP Ser240/244 (MesoScale Discovery K150DGD-3) or an antibody to pAkt Ser 473 (MesoScale Discovery K151DGD-3). Plates have been blocked before by incubation with 150 μl MesoScale Discovery Blocking Solution-A for 1 hour at room temperature followed by washing with 150 μl 1× Tris wash buffer per well. After the transfer of the cell lysate to the MSD plate, the pS6RP (or pAkt) protein is captured on the coated antibody by incubation at room temperature for 1 hour with gentle shaking. After the capture step the plate is washed three times with 150 μl of 1× Tris wash buffer per well. Then 25 μl detection antibody conjugated with a Sulfo-Tag is added and incubated for 1 hour at room temperature with gentle shaking. Subsequently the antibody solution is removed and the plate is washed 3 times with 150 μl 1× Tris wash buffer per well and 150 μl Read buffer is added. The plates are analysed on a MSD 2400 Plate Reader (MesoScale Discovery). Data analysis is performed using nonlinear regression for a sigmoidal dose-response with a variable slope.

Structure (SMILES) | IC50 [1] | IC50 [2]
C[C@H]1COCCN1c1nc(-c2ccc(NC(=O)NC3CC3)cc2)cc(-c2cccnc2S(C)(=O)=O)n1 [Example 46, (S)-1-cyclopropyl-3-(4-(2-(3-methylmorpholino)-6-(2-(methylsulfonyl)pyridin-3-yl)pyrimidin-4-yl)phenyl)urea] | < 100 nM | < 100 nM
C[C@H]1COCCN1c1cc(-c2cncc(F)c2)nc(-c2ccc(NC(=O)NC3CC3)cc2)n1 [Example 23, (S)-1-cyclopropyl-3-(4-(4-(5-fluoropyridin-3-yl)-6-(3-methylmorpholino)pyrimidin-2-yl)phenyl)urea] | 100 to 1000 nM | < 100 nM
C[C@H]1COCCN1c1nc(-c2ccc(NC(=O)NC3CC3)cc2)cc(-c2ccccc2S(C)(=O)=O)n1 [Example 4, (S)-1-cyclopropyl-3-(4-(2-(3-methylmorpholino)-6-(2-(methylsulfonyl)phenyl)pyrimidin-4-yl)phenyl)urea] | < 100 nM | 
C[C@H]1COCCN1c1cc(-c2ccccn2)nc(-c2ccc(NC(=O)NC3CC3)cc2)n1 [Example 42, (S)-1-cyclopropyl-3-(4-(4-(3-methylmorpholino)-6-(pyridin-2-yl)pyrimidin-2-yl)phenyl)urea] | 100 to 1000 nM | < 100 nM
C[C@H]1COCCN1c1nc(-c2ccc(NC(=O)NC3CC3)cc2)cc(-c2cc(F)ccc2S(C)(=O)=O)n1 [Example 40, (S)-1-cyclopropyl-3-(4-(6-(5-fluoro-2-(methylsulfonyl)phenyl)-2-(3-methylmorpholino)pyrimidin-4-yl)phenyl)urea] | < 100 nM | < 100 nM
C[C@H]1COCCN1c1nc(-c2ccc(NC(=O)N[C@H]3CCC[C@@H]3O)cc2)cc(-c2cc(F)ccc2S(C)(=O)=O)n1 [Example 76, 1-(4-(6-(5-fluoro-2-(methylsulfonyl)phenyl)-2-((S)-3-methylmorpholino)pyrimidin-4-yl)phenyl)-3-((1S,2S)-2-hydroxycyclopentyl)urea] | < 100 nM | < 100 nM
C[C@H]1COCCN1c1nc(-c2ccc(NC(=O)NCCCO)cc2)cc(-c2cc(F)ccc2S(C)(=O)=O)n1 [Example 64, (S)-1-(4-(6-(5-fluoro-2-(methylsulfonyl)phenyl)-2-(3-methylmorpholino)pyrimidin-4-yl)phenyl)-3-(3-hydroxypropyl)urea] | < 100 nM | < 100 nM
C[C@H]1COCCN1c1nc(-c2ccc(NC(=O)NCC(F)F)cc2)cc(-c2cc(F)ccc2S(C)(=O)=O)n1 [Example 47, (S)-1-(2,2-difluoroethyl)-3-(4-(6-(5-fluoro-2-(methylsulfonyl)phenyl)-2-(3-methylmorpholino)pyrimidin-4-yl)phenyl)urea] | < 100 nM | < 100 nM
C[C@H]1COCCN1c1cc(-c2ccc(F)nc2)nc(-c2ccc(NC(=O)NC3CC3)cc2)n1 [Example 21, (S)-1-cyclopropyl-3-(4-(4-(6-fluoropyridin-3-yl)-6-(3-methylmorpholino)pyrimidin-2-yl)phenyl)urea] | < 100 nM | 100 to 1000 nM
C[C@H]1COCCN1c1cc(-c2ccccn2)nc(-c2ccc(NC(=O)NCCO)cc2)n1 [Example 43, (S)-1-(2-hydroxyethyl)-3-(4-(4-(3-methylmorpholino)-6-(pyridin-2-yl)pyrimidin-2-yl)phenyl)urea] | < 100 nM | < 100 nM
C[C@H]1COCCN1c1nc(-c2ccc(NC(=O)NCCO)cc2)cc(-c2cc(F)ccc2S(C)(=O)=O)n1 [Example 41, (S)-1-(4-(6-(5-fluoro-2-(methylsulfonyl)phenyl)-2-(3-methylmorpholino)pyrimidin-4-yl)phenyl)-3-(2-hydroxyethyl)urea] | < 100 nM | < 100 nM
CS(=O)(=O)c1ccc(F)cc1-c1cc(-c2ccc(NC(=O)NCCO)cc2)nc(N2CCOCC2)n1 [Example 62, 1-(4-(6-(5-fluoro-2-(methylsulfonyl)phenyl)-2-morpholinopyrimidin-4-yl)phenyl)-3-(2-hydroxyethyl)urea] | 100 to 1000 nM | < 100 nM
O=C(Nc1ccncc1)Nc1ccc(-c2nccc(N3CC4CCC(C3)O4)n2)cc1 [Example 61, 1-(4-(4-(8-oxa-3-azabicyclo[3.2.1]octan-3-yl)pyrimidin-2-yl)phenyl)-3-(pyridin-4-yl)urea] | < 100 nM | < 100 nM
C[C@H]1COCCN1c1cc(-c2ccccc2S(C)(=O)=O)nc(-c2ccc(NC(=O)NC3CC3)cc2)n1 [Example 6, (S)-1-cyclopropyl-3-(4-(4-(3-methylmorpholino)-6-(2-(methylsulfonyl)phenyl)pyrimidin-2-yl)phenyl)urea] | < 100 nM | < 100 nM
C[C@H]1COCCN1c1nc(-c2ccc(NC(=O)NCCF)cc2)cc(-c2cc(F)ccc2S(C)(=O)=O)n1 [Example 44, (S)-1-(4-(6-(5-fluoro-2-(methylsulfonyl)phenyl)-2-(3-methylmorpholino)pyrimidin-4-yl)phenyl)-3-(2-fluoroethyl)urea] | < 100 nM | < 100 nM
C[C@H]1COCCN1c1ccnc(-c2ccc(NC(=O)Nc3ccncc3)cc2)n1 [Example 60, (S)-1-(4-(4-(3-methylmorpholino)pyrimidin-2-yl)phenyl)-3-(pyridin-4-yl)urea] | < 100 nM | < 100 nM
CCNC(=O)Nc1ccc(-c2cc(-c3cc(F)ccc3S(C)(=O)=O)nc(N3CCOC[C@@H]3C)n2)cc1 [Example 2, (S)-1-ethyl-3-(4-(6-(5-fluoro-2-(methylsulfonyl)phenyl)-2-(3-methylmorpholino)pyrimidin-4-yl)phenyl)urea] | < 100 nM | < 100 nM
